# Laboratory results taken from patent US20100222396A1 (Novartis AG, priority 2009, published 2010).
# Columns and labels:
# [1] = biological target: T1, human orexin 2 receptor (hOx2R) (Homo sapiens, UniProt O43614); test: Radioligand binding assay ([125I]orexin A competition), hOx2R; details: CHO or HEK cell membranes, 1 h room temperature
# T1 construct: expressed in transfected cells
# T1 sequence (O43614 1-444): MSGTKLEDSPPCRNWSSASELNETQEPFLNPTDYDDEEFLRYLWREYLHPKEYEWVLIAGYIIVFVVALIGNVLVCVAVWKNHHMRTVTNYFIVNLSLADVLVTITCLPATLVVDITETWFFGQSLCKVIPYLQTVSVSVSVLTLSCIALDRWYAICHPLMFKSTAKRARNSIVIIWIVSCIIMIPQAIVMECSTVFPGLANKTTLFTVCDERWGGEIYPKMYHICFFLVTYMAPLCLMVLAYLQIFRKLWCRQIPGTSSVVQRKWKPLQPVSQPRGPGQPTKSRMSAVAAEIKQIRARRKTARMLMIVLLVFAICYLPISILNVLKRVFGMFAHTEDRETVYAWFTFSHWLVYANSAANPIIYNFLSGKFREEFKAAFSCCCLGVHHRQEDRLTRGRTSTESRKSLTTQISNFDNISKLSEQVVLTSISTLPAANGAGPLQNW
# Outline: (§1)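 Membranes from CHO or HEK cells expressing the human receptor, incubated 1 h at room temperature with […] [125I]orexin A and compound in HEPES pH 7.5 buffer with BSA, MgCl2, CaCl2 and tween.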
# [2] = biological target: T2, human orexin 1 receptor (hOx1R) (Homo sapiens, UniProt O43613); test: Radioligand binding assay ([125I]orexin A competition), hOx1R; details: CHO or HEK cell membranes, 1 h room temperature
# T2 construct: expressed in transfected cells
# T2 sequence (O43613 1-425): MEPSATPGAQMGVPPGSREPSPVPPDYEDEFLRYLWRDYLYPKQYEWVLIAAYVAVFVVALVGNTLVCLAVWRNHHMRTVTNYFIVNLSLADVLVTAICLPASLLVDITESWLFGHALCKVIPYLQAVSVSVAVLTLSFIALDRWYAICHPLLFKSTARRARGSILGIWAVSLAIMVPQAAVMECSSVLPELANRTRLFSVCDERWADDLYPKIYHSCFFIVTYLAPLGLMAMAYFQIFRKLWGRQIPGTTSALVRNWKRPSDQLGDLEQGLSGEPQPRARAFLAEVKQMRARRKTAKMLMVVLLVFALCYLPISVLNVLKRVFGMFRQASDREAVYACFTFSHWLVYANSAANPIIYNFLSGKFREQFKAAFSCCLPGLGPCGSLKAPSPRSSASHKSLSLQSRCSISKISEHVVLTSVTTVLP
# Outline: as §1
# [3] = biological target: T2, human orexin 1 receptor (hOx1R); test: Calcium accumulation in cells (FLIPR), antagonism of orexin A, hOx1R; format: cell-based; details: for Kd: cells expressing human orexin 1 receptor, IC50 vs orexin A converted by Cheng and Prusoff correction
# Outline: (§2)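 Serum-starved receptor-expressing cells were loaded with Fluo-4-AM (2 μM) plus probenecid (0.1 mM) in HEPES buffer, pH 7.4, with 1% BSA, and Ca2+ fluorescence was read on FLIPR. Compounds (10^−9–10^−5 M) were added first, and orexin A was added one hour later to measure antagonism.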
# [4] = biological target: T1, human orexin 2 receptor (hOx2R); test: Calcium accumulation in cells (FLIPR), antagonism of orexin A, hOx2R; format: cell-based; details: for Kd: cells expressing human orexin 2 receptor, IC50 vs orexin A converted by Cheng and Prusoff correction; for inhibition at 10 µM: measured at a concentration of 10 μM of compound (cells marked ^a)
# Outline: as §2
Structure (SMILES),Kd [1] [nM],Kd [2] [nM],Kd [3] [nM],Kd [4] [nM],inhibition at 10 µM [4] [%],inhibition at 10 µM ([3]; measured at a concentration of 10 μM of compound (cells marked ^a)) [%]
"CN(C(=O)c1cccc(C(F)(F)F)c1)[C@H](CCNC(=O)c1ccccn1)Cc1ccccc1 [Example 4, Pyridine-2-carboxylic acid {(S)-3-[methyl-(3-trifluoromethyl-benzoyl)-amino]-4-phenyl-butyl}-amide]",14,112,173,44,–,–
"CN(C(=O)c1ccc(Br)cc1)[C@H](CCNC(=O)c1ccccn1)Cc1ccccc1 [Example 99, Pyridine-2-carboxylic acid {(S)-3-[(4-bromo-benzoyl)-methyl-amino]-4-phenyl-butyl}-amide]",822,1940,1110,115,–,–
"CN(C(=O)c1cccc2c1ccn2C)[C@H](CCNC(=O)c1ccccn1)Cc1ccccc1 [Example 40, 1-Methyl-1H-indole-4-carboxylic acid {(S)-1-benzyl-3-[(pyridine-2-carbonyl)-amino]-propyl}-methyl-amide]",619,125,193,221,–,–
"CCN(C(=O)c1ccc2c(c1)OCO2)[C@H](CCNC(=O)c1ccccn1)Cc1ccccc1 [Example 8, Pyridine-2-carboxylic acid {(S)-3-[(benzo[1,3]dioxole-5-carbonyl)-ethyl-amino]-4-phenyl-butyl}-amide]",46,270,211,32,–,–
"CN(C(=O)c1ccc2ccccc2c1)[C@H](CCNC(=O)c1nc2ccccc2n1C)Cc1ccc(F)cc1 [Example 57, 1-Methyl-1H-benzoimidazole-2-carboxylic acid {(S)-4-(4-fluoro-phenyl)-3-[methyl-(naphthalene-2-carbonyl)-amino]-butyl}-amide]",2850,443,12,26,–,–
"CN(C(=O)c1ccc2c(c1)OCCO2)[C@H](CCNC(=O)c1ccccn1)Cc1ccccc1 [Example 71, Pyridine-2-carboxylic acid {(S)-3-[(2,3-dihydro-benzo[1,4]dioxine-6-carbonyl)-methyl-amino]-4-phenyl-butyl}-amide]",9520,1610,1940,–,28,–
"CN(C(=O)c1cccc2ccccc12)[C@H](CCNC(=O)c1nc2ccccc2n1C)Cc1ccccc1 [Example 18, 1-Methyl-1H-benzoimidazole-2-carboxylic acid {(S)-3-[methyl-(naphthalene-1-carbonyl)-amino]-4-phenyl-butyl}-amide]",129,332,100,14,–,–
"CN(C(=O)c1cccc2c1OCO2)[C@H](CCNC(=O)c1nc2ccccc2n1C)Cc1ccccc1 [Example 19, 1-Methyl-1H-benzoimidazole-2-carboxylic acid {(8)-3-[(benzo[1,3]dioxole-4-carbonyl)-methyl-amino]-4-phenyl-butyl}-amide]",131,793,1120,114,–,–
"CN(C(=O)c1cccc2ccccc12)[C@H](CCNC(=O)c1ccccn1)Cc1ccc(Cl)cc1 [Example 35, Pyridine-2-carboxylic acid {(S)-4-(4-chloro-phenyl)-3-[methyl-(naphthalene-1-carbonyl)-amino]-butyl}-amide]",468,1330,80,9,–,–
"CN(C(=O)c1cccc2c1OCO2)[C@H](CCNC(=O)c1nc2ccccc2n1C)Cc1ccc(F)cc1 [Example 56, 1-Methyl-1H-benzoimidazole-2-carboxylic acid [(S)-3-[(benzo[1,3]dioxole-4-carbonyl)-methyl-amino]-4-(4-fluoro-phenyl)-butyl]-amide]",2720,> 10000,–,–,35,1
"CN(C(=O)c1ccc(C(F)(F)F)cc1)[C@H](CCNC(=O)c1ccccn1)Cc1ccccc1 [Example 73, Pyridine-2-carboxylic acid {(S)-3-[methyl-(4-trifluoromethyl-benzoyl)-amino]-4-phenyl-butyl}-amide]",> 10000,> 10000,1920,1310,–,–
